The values that follow come from patent EP0171005A2, “Xanthinylmethylthiazolidines, process for their preparation and pharmaceutical compositions containing them” (BOEHRINGER BIOCHEMIA ROBIN S.p.A., priority 1984, dated 1986).

The test system of data set [1] is trachea smooth muscle strips of Guinea pig contracted by methaco- line. The data set is described as follows: Relaxation in vitro of trachea smooth muscle strips contracted by methacholine. Conditions: Cavia porcellus, read-out: ED50 (the source's name). The source says:
In particular these latter compounds of the invention are also characterized by pronounced ability to induce relaxation of the bronchial and tracheal smooth muscle.

In data set [2] the test system is anhaestetized guinea pigs. The data set is described as follows: Konzett-Ressler test, resolution of histamine-induced bronchospasm. The class given is in vivo. Conditions: intrajugular administration; bronchospasm induced by i.v. histamine.
The next data set deals with conscious mongrel dogs. Kind of data set: Dog cough test (Stefko procedure, cough induced by electric stimulation of the trachea). The data set is classed as in vivo. Here is the method: (§1) The techniques described by Charlier et al. (Arch. Int. Pharmacodyn. 134, 306, 1961) and by Stefko et al. (J. Pharm. Exp. Therap., 108, 217, 1953), adapted with minor modifications, are used to investigate the antitussive properties of the compounds of the invention. Codeine phosphate is used as positive reference compound.
In the Stefko procedure, conscious mongrel dogs (15+3 kg body weight) are used; the compounds of the invention are tested for their ability to inhibit cough induced by electric stimulation.
Under general anesthesia, two insulated nichrome wires (0.4 mm diameter) are surgically implanted into the submucosa of the trachea.
About two days later, the dogs are placed in a sling and the exteriorized electrodes are connected to an electric stimulating device (such as Grass S 48 Mod.).
The stimulation parameters such as: delay 0.01 msec, duration 1 msec, frequency 30 Hz, are used.
An electrical stimulus of 1 sec is applied 10 times at 5 sec intervals in order to determine the minimum voltage necessary for eliciting reproducible cough responses. Then, tussive responses to the electrical stimuli are registered at 15, 30, 60, 90, 120, 150, 180, 240, 300 and 360 minutes after oral administration of the compounds of the invention.
The tussive responses are scored as follows: • 1: no response; 2: sigh or exaggerated expiration; • 3: marked cough; 4: one marked cough and one exaggerated expiration; 5: two marked coughs.
Six dogs are employed for each determination and the mean activity is calculated.
The inhibition percent of the cough response and the duration of activity are compared with codeine.

Data set [3] has as its system male New Zealand white rabbits. Kind of data set: Mucus regulating properties in bronchitic rabbits (5% H2SO3 aerosol), sputum parameters as AUC. The data set is classed as in vivo. Particulars: for Fucose (mg/ml), AUC as a 100% compared to bronchitic controls / Galactose (mg/ml), AUC as a 100% compared to bronchitic controls / Mucus produc-tion (ml/kg), AUC as a 100% compared to bronchitic controls / Phospho-lipids (mg/ml), AUC as a 100% compared to bronchitic controls / Protein (mg/ml), AUC as a 100% compared to bronchitic controls / Sialic acid (mg/ml), AUC as a 100% compared to bronchitic controls / Viscosity (cps), AUC as a 100% compared to bronchitic controls: Table 2, oral, equimolecular amounts to S-carboxymethyl cysteine. Here is the method: The mucus regulating properties of the compounds of the invention are investigated "in vivo" by means of experiments carried out on male New Zealand white rabbits. The animals are submitted to inhalation of a 5% H2S03 aqueous solution by aerosol (exposition of 3 hours a day for 3 alternate days), to induce a chronic bronchial inflammatory disease which causes a production of pathological sputum in the bronchial tree.
Aim of the experiments is to evaluate modifications of selective parameters such as dry weight of the sputum, viscosity, content in proteins, phospholipids, galactose, sialic acid and fucose, induced in this pathological sputum by pharmacological treatment with the compounds of the invention.
To this purpose, the sputum produced in the bronchial tree is collected daily, through a "T" shaped glass cannula, inserted in the trachea, before and after oral twice a day (9.00 a.m. and 4.00 p.m.) treatment with one of the compounds of the invention.
The schedule treatment procedure is shown in the following Schema 1: [drawing 23] where 0 indicates the day of implantation of the tracheal cannula; -7-5-3 indicate the days of H2S03 treatment (H); 1,2,3,4 indicate the days of oral administration of the compounds of the invention (T) and the time of mucus collection (M).
The mucus collected in day 1 in the morning is considered as a blank; 7 indicates the day of the animal sacrifice after the mucus collection.
The sputum samples are stored in the freezer (-20°C) until the investigation of biological and rheological parameters is carried out.
The samples are investigated for relative viscosity, measured at 37°C with a Brookfield viscometer (model LT VD) equipped with a 1,565° cone-plate, and aliquoted for biochemical analysis of protein, phospholipids, galactose, sialic acid and fucose contents. Dry weight of the mucus is also determined. For each parameter, cumulative data are referred to a seven days period after the beginning of the treatment and they are extrapolated using the AUC method (area under curve) calculated by the trapezoidal rule. Finally the data are compared with data obtained from controls (vehicle treatment), non bronchitic rabbits (vehicle treatment) and positive controls bronchitis rabbits treated with 0.153 M 2-carboxymethyl cysteine.

For a further data set, the system named is Guinea pigs. Kind of data set: Guinea pig cough test (Charlier procedure, citric acid aerosol). The class given is in vivo. Conditions: for ED50: Cavia porcellus, ip, 1 h; for delay of first cough stroke: delay corresponding to the ED50, i.p. Here is the method: as §1
According to the Charlier procedure, Guinea pigs are exposed to a citric acid aerosol (7.5%) and cough is recorded 60 minutes after the antitussive treatment by i.p. route. Male animals of 300-400 g body weight are used in all the experiments. Guinea pigs are placed in a perspex box (20x30x30 cm) connected to an aerosol compressor; the animals are subjected to a citric acid saturated atmosphere, 60 minutes after the i.p. injection of a compound of the invention (0.1 and 0.3 M solutions; 1 ml/kg).
The total number of cough strokes and the delay of the first cough are recorded during the first five minutes.
Five guinea pigs are used for each dose level and the results are compared with controls (vehicle treatment) and codeine phosphate 0.07 M solution (standard treatment).
ED and the corresponding delay of first cough stroke are calculated.
The data obtained by i.p. administration are confirmed by oral administration.

Data set [4] in a line: Acute toxicity, LD50 in mice. Conditions: mouse, in vivo. The source says: LD50 values above 1 g/kg are generally determined both after oral and intraperitoneal administration of the compounds of the invention.
Where [5] appears, read: Table 1, 0.153 M, oral twice a day, seven days period.

pEC50: −log10 of the molar value. Read-outs that look alike come from different tables or passages of the source.

Broadly, the inhibition is the percentage by which the read-out fell short of the control. The term ED50 denotes the dose that gives a 50% effect, or the effect in half of the subjects.

`COc1cc(C=CC(=O)N2CCSC2Cn2cnc3c2c(=O)n(C)c(=O)n3C)cc(CN2CCOCC2)c1O` (centres unmarked) [2-LTl',3'-dimethyl-xanthin-7'-yl)methyl]-3-[(3-morpholinylmethyl-4'-hydroxy-5'-methoxy)cinnamoyi7thiazolidine]: the pEC50 in data set [1] is 3.72. Further, in data set [2], the “activity compared with aminophylline in the resolution of bronchospasm” value is given as “at least four times more active than aminophylline”.

As for `Cn1c(=O)c2c(ncn2CC2NC(C(=O)O)CS2)n(C)c1=O` (centres unmarked) [2-[(1',3'-dimethylxanthin-7'-yl)methyl]thiazolidine-4-carboxylic acid], the “duration of action compared with codeine” value with conscious mongrel dogs (20 mg/kg, dogs) is recorded as “favourably compares with codeine for its duration of action”. Also, the inhibition at 20 mg/kg in the data set on conscious mongrel dogs (Canis lupus familiaris, 20 mg/kg, oral, read-out: inhibition of the cough stimulus) is 32%. For the same compound, in data set [3], the “Fucose (mg/ml), AUC as a 100% compared to bronchitic controls” value was found to be 77%; the “Galactose (mg/ml), AUC as a 100% compared to bronchitic controls” value is 82%; the “Mucus produc-tion (ml/kg), AUC as a 100% compared to bronchitic controls” value stood at 128%; the “Phospho-lipids (mg/ml), AUC as a 100% compared to bronchitic controls” value was determined as 78%. In data set [3], the “Protein (mg/ml), AUC as a 100% compared to bronchitic controls” value came out at 80%; the “Sialic acid (mg/ml), AUC as a 100% compared to bronchitic controls” value was determined as 81%; the “Viscosity (cps), AUC as a 100% compared to bronchitic controls” value came out at 55%. The ED50 with Guinea pigs (citric acid aerosol 7.5%, cough recorded 60 minutes after i.p. treatment, read-out: ED50) amounted to 62 mg/kg. The “delay of first cough stroke” value with Guinea pigs is recorded as 213%. Moreover, in the data set on Guinea pigs (guinea pig cough test), the “duration of action compared with codeine” value is given as “more favourable duration of action in comparison to codeine”.

For `Cn1c(=O)c2c(ncn2CC2NCCS2)n(C)c1=O` (centres unmarked) [2-[(1',3'-dimethylxanthin-7'-yl)methyl]thiazolidine], the LD50 in data set [4] (ip, read-out: LD 50 (i.p.)) amounted to 480 mg/kg. In addition, in data set [4] (oral, read-out: LD 50 (os)), the LD50 worked out at 600 mg/kg. In addition, in data set [3], the “Fucose (mg/ml), AUC as a 100% compared to bronchitic controls” value is reported as 66%; the “Galactose (mg/ml), AUC as a 100% compared to bronchitic controls” value is listed as 5%; the “Mucus produc-tion (ml/kg), AUC as a 100% compared to bronchitic controls” value is given as 80%; the “Phospho-lipids (mg/ml), AUC as a 100% compared to bronchitic controls” value came out at 30%. Moreover, in data set [3], the “Protein (mg/ml), AUC as a 100% compared to bronchitic controls” value is reported as 58%; the “Sialic acid (mg/ml), AUC as a 100% compared to bronchitic controls” value is recorded as 101%; the “Viscosity (cps), AUC as a 100% compared to bronchitic controls” value was determined as 16%.

Regarding `N[C@@H](CSCC(=O)O)C(=O)O` [S-carboxy-methyl cy steine, S-carboxymethyl cysteine, reference compound], in data set [3] (setting [5]), the “Fucose mg/ml, AUC as a % compared to bronchitis controls” value amounted to 56%; the “Galactose mg/ml, AUC as a % compared to bronchitis controls” value came to 64%; the “Mucus production ml/kg, AUC as a % compared to bronchitis controls” value stood at 97%; the “Phospholipids mg/ml, AUC as a % compared to bronchitis controls” value turned out to be 108%. In data set [3] (setting [5]), the “Protein mg/ml, AUC as a % compared to bronchitis controls” value worked out at 105%; the “Sialic acid mg/ml, AUC as a % compared to bronchitis controls” value was found to be 60%; the “Viscosity (cps), AUC as a % compared to bronchitis controls” value worked out at 52%.

In the data set on conscious mongrel dogs (8 mg/kg, oral), `COc1ccc2c3c1O[C@H]1[C@@H](O)C=C[C@H]4[C@@H](C2)N(C)CC[C@@]341` [codeine phosphate, reference compound] displayed a duration of activity of 2 to 4 h. Besides, the inhibition at 8 mg/kg in the data set with conscious mongrel dogs (Canis lupus familiaris, po, read-out: inhibition of the cough stimulus) is 52%. In the data set with Guinea pigs, the ED50 was ~23 mg/kg and the “delay of first cough stroke” value is listed as 170%.

With `Cn1c(=O)c2c(ncn2CC(O)CO)n(C)c1=O` (centres unmarked) [dihydroxypropyltheophylline, reference compound], the pEC50 in data set [1] (reference, unit inferred) is 4.12.
